This is an account of results in patent US20230130766A1 (SALK INSTITUTE FOR BIOLOGICAL STUDIES, priority 2020, published 2023).

Usually IC50 stands for the point on the concentration scale where inhibition reaches its midpoint.

Each structure is given as a SMILES string.

One assay relates to A549 cells. The experiment in a line: A549 xenografts, ULK inhibitor alone and in combination with carboplatin. In kind it is in vivo, nude mice. To be noted: carboplatin 25 mg/kg every three days alone, day 53. On the procedure:
A549 cells (5M cells) were injected bilaterally into the flanks of thirty-six nude mice to create tumor xenografts in order to assess the efficacy of Compound 14 in treating non-small cell lung cancer tumors both alone and in combination with carboplatin, the current standard of care therapy for non-small cell lung cancer. After 11 days of letting tumor cells proliferate (at which point tumors were ˜50 mm^3 in volume), administration of carboplatin, Compound 14, or combinations began. One cohort of six mice received 20 mg/kg twice daily doses of Compound 14 alone, one cohort of six mice received 30 mg/kg twice daily doses of Compound 14 alone, one cohort of six mice received 25 mg/kg doses of carboplatin every three days, one cohort of six mice received 20 mg/kg twice daily doses of Compound 14 in conjunction with 25 mg/kg doses of carboplatin every three days, one cohort of six mice received 30 mg/kg twice daily doses of Compound 14 in conjunction with 25 mg/kg doses of carboplatin every three days, and the remaining six mice were treated with vehicle. Treatment and monitoring was continued until day 53 post inoculation of tumor cells (42 days of treatment).
For `N.N.O=C([O-])C1(C(=O)[O-])CCC1.[Pt+2]` [carboplatin, reference compound], the “final tumor average volume” value is listed as around 200 mm^3.

The same assay, now with this note: monotherapy: carboplatin 25 mg/kg every three days, Compound 14 20 mg/kg twice daily.
As to `N.N.O=C([O-])C1(C(=O)[O-])CCC1.[Pt+2]` [carboplatin, reference compound], the “tumor growth compared to the control” value is recorded as “markedly reduced growth compared to the control”.

Another assay deals with A549 cells. The assay can be described thus: A549 xenograft large tumors, ULK inhibitor alone versus carboplatin. To be noted: A549 large tumors (over 200 mm^3 at start); carboplatin 25 mg/kg every three days; day 72. It counts as in vivo, nude mice. On the procedure:
A549 cells (5M cells) were injected bilaterally into the flanks of forty-six nude mice to create tumor xenografts in order to assess the efficacy of Compound 14 in treating larger non-small cell lung cancer tumors compared to carboplatin, the current standard of care therapy for non-small cell lung cancer. After 40 days of letting tumor cells proliferate (at which point tumors were over 200 mm^3 in volume), administration of carboplatin or Compound 14 was initiated. One cohort of twelve mice received 20 mg/kg twice daily doses of Compound 14, one cohort of ten mice received 30 mg/kg twice daily doses of Compound 14, one cohort of seven mice received 25 mg/kg doses of carboplatin every three days, one cohort of seven mice received 40 mg/kg once daily doses of Compound 14, and the remaining ten mice were treated with vehicle. Treatment and monitoring was continued until day 72 post inoculation of tumor cells (32 days of treatment).
Consider `N.N.O=C([O-])C1(C(=O)[O-])CCC1.[Pt+2]` [carboplatin, reference compound], for which the “tumor volume by the end of the study” value is listed as “above 500 mm^3”.

A further assay deals with MDA-MB-468 cells expressing mCherry-EGFP-LC3. The experiment in a line: Autophagic flux by flow cytometry. It counts as cell-based. To be noted: olaparib 30 μM alone; 48 h. On the procedure:
To investigate the mechanism by which Compound 349 potentiates the cytotoxic effects of PARP inhibitors, MDA-MB-468 cells expressing mCherry-EGFP-LC3 were treated with olaparib (30 μM) and/or Compound 349 (10 μM) for 48 h and then quantified for autophagic flux. For these experiments, MDA-MB-468 cells stably expressing the mCherry-GFP-LC3 fusion protein were plated in 6-well plates at a density of 6×10^5 cells/well in growth media DMEM/F12+GlutaMAX-1 (Gibco) supplemented with 10% FBS (Gibco) and 1× Anti-Anti (Gibco) and allowed to grow overnight. Cells were treated, trypsinized, and then resuspended in PBS, and analytical cytometry was performed using an LSRFortessa 14-color (BD Biosciences) with a 488 nm and […] laser. For flow cytometry, wild type MDA-MB-468 cells were used as the unstained control, and MDA-MB-468 cells expressing either mCherry or GFP were used for comparison. Events of 10,000 were collected for each sample.
For orientation: A flow cytometer gives signals particle by particle.
On to `O=C(c1cc(Cc2n[nH]c(=O)c3ccccc23)ccc1F)N1CCN(C(=O)C2CC2)CC1` [olaparib, reference compound], for which the “increase in autophagic flux compared with control cells” value is “approximately 30%”.

The test system of another assay is MDA-MB-468 cells. The assay can be described thus: CellTiter-Glo cell viability dose-response matrix, synergy by Combenefit (Loewe model). It counts as cell-based. To be noted: combination of Compound 349 and olaparib, 72 h. On the procedure:
Different concentrations of Compound 349 with olaparib (FIG. 13A) were tested to measure the combined effect of inhibiting both ULK1/2 and PARP. For these experiments, MDA-MB-468 cells were treated with Compound 349 (0-15 μM) and olaparib (0-15 μM) in a dose-response matrix for 72 h, and cell viability was assessed by a CellTiter-Glo assay, and the synergistic effect was analyzed with Combenefit using the Loewe model.
In the case of `O=C(c1cc(Cc2n[nH]c(=O)c3ccccc23)ccc1F)N1CCN(C(=O)C2CC2)CC1` [olaparib, reference compound], the “concentrations at which significant synergy was observed” value was in the range of 3.8 to 15 µM.

The target in the next assay is T1, ULK1 (Homo sapiens, UniProt O75385).
T1 sequence (O75385 1-1050): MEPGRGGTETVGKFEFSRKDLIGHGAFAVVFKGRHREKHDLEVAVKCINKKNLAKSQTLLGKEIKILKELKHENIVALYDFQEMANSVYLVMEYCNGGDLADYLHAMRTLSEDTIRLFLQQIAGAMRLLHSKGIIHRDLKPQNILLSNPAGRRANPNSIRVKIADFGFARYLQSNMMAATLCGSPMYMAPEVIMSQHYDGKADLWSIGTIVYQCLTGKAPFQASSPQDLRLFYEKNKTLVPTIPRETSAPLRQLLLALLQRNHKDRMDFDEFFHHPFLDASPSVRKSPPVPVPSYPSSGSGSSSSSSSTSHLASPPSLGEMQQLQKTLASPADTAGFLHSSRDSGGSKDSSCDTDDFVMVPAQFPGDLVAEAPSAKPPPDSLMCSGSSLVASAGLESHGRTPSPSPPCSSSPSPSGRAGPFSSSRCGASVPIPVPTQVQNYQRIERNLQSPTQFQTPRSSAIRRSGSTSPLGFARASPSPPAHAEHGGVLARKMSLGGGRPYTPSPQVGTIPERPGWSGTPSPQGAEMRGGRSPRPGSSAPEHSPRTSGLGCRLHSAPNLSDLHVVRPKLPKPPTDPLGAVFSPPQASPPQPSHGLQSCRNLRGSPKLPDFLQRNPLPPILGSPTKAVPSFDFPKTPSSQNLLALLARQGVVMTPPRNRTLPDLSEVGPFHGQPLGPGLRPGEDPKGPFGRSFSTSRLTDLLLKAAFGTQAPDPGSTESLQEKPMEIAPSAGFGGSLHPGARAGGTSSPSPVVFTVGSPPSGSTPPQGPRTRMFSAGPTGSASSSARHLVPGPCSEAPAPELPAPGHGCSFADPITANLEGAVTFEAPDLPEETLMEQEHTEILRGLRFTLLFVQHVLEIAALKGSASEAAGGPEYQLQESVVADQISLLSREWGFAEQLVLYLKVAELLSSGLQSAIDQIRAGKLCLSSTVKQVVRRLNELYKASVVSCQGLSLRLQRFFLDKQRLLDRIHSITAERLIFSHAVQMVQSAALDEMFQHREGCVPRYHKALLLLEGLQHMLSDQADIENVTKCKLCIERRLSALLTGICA
The assay can be described thus: ULK1 inhibition assay. To be noted: * = tested as a mixture of regioisomers. It counts as biochemical.
As to `FC(F)(F)c1cnc(Nc2ccc3c(c2)CCNC3)nc1NC1CC1` [Compound 309], the concentration for half-maximal inhibition (IC50) was below 200 nM.
The same measure, in the same setting: under `CNC(=O)c1ccccc1Nc1nc(Nc2ccc(N3CCOCC3)cc2OC)ncc1C(F)(F)F` [Compound 39] stands below 200 nM; under `CNC(=O)Cc1ccccc1Oc1nc(Nc2cc(OC)c(OC)c(OC)c2)ncc1Br` [Compound 327], above 2000 nM.
Consider `COc1cc(Nc2ncc(Br)c(Oc3ccccc3CN(C)C)n2)cc(OC)c1OC` [Compound 283], for which the concentration for half-maximal inhibition (IC50) is above 2000 nM.
Same read-out and setting: the same measure for `O=C1CCc2cc(Nc3ncc(C(F)(F)F)c(NCC4CC4)n3)ccc2N1` [Compound 216]: below 200 nM.
Still for that read-out and setting: under `COCCNc1ncc(C(F)(F)F)c(Nc2ccc3c(c2)CCC(=O)N3)n1` [Compound 151b] stands below 200 nM; under `CC(Cl)CNc1nc(Nc2ccc3c(c2)CCC(=O)N3)ncc1C(F)(F)F` (centres unmarked) [Compound 183b], below 200 nM; under `CCONc1nc(Nc2ccc3c(c2)CCC(=O)N3)ncc1C(F)(F)F` [Compound 219], above 2000 nM.
Regarding `COc1ccc(C)c(Nc2ncc(Cl)c(Nc3nccc(C)n3)n2)c1` [Compound 55], the half-inhibitory concentration (IC50) was above 2000 nM.
Same read-out and setting: the same measure for `CNC(=O)c1ccccc1Nc1nc(Nc2cc(OC)ccc2C)ncc1C(F)(F)F` [Compound 42]: below 200 nM; for `O=C1CCc2cc(Nc3ncc(C(F)(F)F)c(O)n3)ccc2N1` [Compound 231b]: above 2000 nM.
Take `FC(F)(F)c1cnc(Nc2ccc3nc[nH]c3c2)nc1Nc1cc(C2CCC2)[nH]n1` [Compound 297]: the IC50 is below 200 nM.
Still for that read-out and setting: the same measure for `CNC(=O)c1ccccc1Oc1nc(Nc2cccc(OC)c2OC)ncc1C(F)(F)F` [Compound 115a]: above 2000 nM; for `CNC(=O)c1cccc(Oc2nc(Nc3ccc4c(c3)CCC(=O)N4)ncc2Br)c1` [Compound 268]: 200 to 2000 nM.
The same measure, in the same setting: the same measure for `COc1cc(Nc2ncc(Br)c(Oc3ccccc3NC(C)=O)n2)cc(OC)c1OC` [Compound 254a]: below 200 nM; for `COCCNc1nc(Nc2ccc3c(c2)CCC(=O)N3)ncc1C(F)(F)F` [Compound 151a]: below 200 nM.
On the same count and under the same terms, the same measure for `CNC(=O)c1ccccc1Nc1nc(Nc2cc(OC)c(OC)c(OC)c2)ncc1C(F)(F)F` [Compound 36]: above 2000 nM.
Regarding `CN(c1ccccc1)c1ncc(C(F)(F)F)c(Nc2ccc3c(c2)CCC(=O)N3)n1` [Compound 184b], the IC50 was below 200 nM.
For the compound `CNS(=O)(=O)c1ccccc1Nc1nc(Nc2cc(OC)c(OC)c(OC)c2)ncc1Br` [Compound 237], the IC50 lay in the range of 200 to 2000 nM.
As for `FC(F)(F)c1cnc(NC2CCC2)nc1Nc1ccc2c(c1)OCO2` [Compound 168a], the IC50 is below 200 nM.
As for `FC(F)(F)c1cnc(Nc2ccnnc2)nc1NC1CC1` [Compound 221a], the IC50 is below 200 nM.
The same measure, in the same setting: the same measure for `CC1CN1c1nc(Nc2ccc3c(c2)CCC(=O)N3)ncc1C(F)(F)F` (centres unmarked) [Compound 183a]: above 2000 nM; for `CNC(=O)c1ccccc1Oc1nc(Nc2ccccc2)ncc1Br` [Compound 111]: above 2000 nM.
Still for that read-out and setting: the same measure for `FC(F)(F)c1cnc(N2CCCC2)nc1Nc1ccc2c(c1)OCO2` [Compound 164a]: above 2000 nM; for `COc1cc(Nc2ncc(Br)c(Oc3ccccc3C(=O)N(C)C)n2)cc(OC)c1OC` [Compound 245]: below 200 nM; for `FC(F)(F)c1cnc(N2CCCC2c2cccnc2)nc1NC1CC1` (centres unmarked) [Compound 228]: above 2000 nM.
As for `O=C1CCc2cc(Nc3ncc(C(F)(F)F)c(N4CC(F)(F)C4)n3)ccc2N1` [Compound 215], the 50% inhibitory concentration (IC50) was below 200 nM.
On the same count and under the same terms, the same measure for `O=C1CCc2cc(Nc3ncc(C(F)(F)F)c(Nc4ccccc4OC(F)F)n3)ccc2N1` [Compound 120a]: below 200 nM.
Still for that read-out and setting: the same measure for `COc1cc(Nc2ncc(Br)c(Nc3ccccc3)n2)cc(OC)c1OC` [Compound 293]: below 200 nM.
On the same count and under the same terms, the same measure for `COc1cc(Nc2ncc(Br)c(Oc3cccc4cccnc34)n2)cc(OC)c1OC` [Compound 324a]: above 2000 nM; for `FC(F)(F)c1cnc(NC2CC2)nc1NC1CC1` [Compound 169]: above 2000 nM.
As to `CNC(=O)c1ccccc1Nc1nc(Nc2cc(OC)ccc2C)ncc1Br` [Compound 17], the IC50 was below 200 nM.

The subject of another assay is MIA PaCa-2 cells. The assay can be described thus: MIA PaCa-2 xenografts, ULK inhibitor alone versus gemcitabine. It counts as in vivo, nude mice. To be noted: day 42, Compound 14 20 mg/kg twice daily, gemcitabine dose not given. The method, then: MIA PaCa-2 cells were injected bilaterally into the flanks of nude mice to create tumor xenografts in order to assess the efficacy of Compound 14 in treating pancreatic cancer tumors compared to gemcitabine, a current standard of care therapy for pancreatic cancer. After 3 days of letting tumor cells proliferate (at which point tumors were ˜100 mm^3 in volume), administration of gemcitabine or Compound 14 was initiated. One cohort received 20 mg/kg twice daily doses of Compound 14, one cohort received gemcitabine, and the remaining cohort was treated with vehicle. Treatment and monitoring were continued until day 42 post inoculation of tumor cells (30 days of treatment).
With `Nc1ccn([C@@H]2O[C@H](CO)[C@@H](O)C2(F)F)c(=O)n1` [gemcitabine, reference compound], the final tumor volume is around 800 mm^3.
